Test results reported in patent US7884133B2, “Pharmaceutical compositions containing (+) cannabidioil and derivatives thereof and some such novel derivatives” (priority 2003, dated 2011).
Entries after “also recorded” stand apart in the source; their conditions may differ. Like-named read-outs stand apart in the source and are kept apart here.

What was measured:
CB1 receptor [1] = target: T1, CB1 receptor (Rattus norvegicus, UniProt P20272); experiment: CB1 receptor binding; conditions: for Ki: first value of CB1/CB2 cell
T1 sequence (P20272 whole entry): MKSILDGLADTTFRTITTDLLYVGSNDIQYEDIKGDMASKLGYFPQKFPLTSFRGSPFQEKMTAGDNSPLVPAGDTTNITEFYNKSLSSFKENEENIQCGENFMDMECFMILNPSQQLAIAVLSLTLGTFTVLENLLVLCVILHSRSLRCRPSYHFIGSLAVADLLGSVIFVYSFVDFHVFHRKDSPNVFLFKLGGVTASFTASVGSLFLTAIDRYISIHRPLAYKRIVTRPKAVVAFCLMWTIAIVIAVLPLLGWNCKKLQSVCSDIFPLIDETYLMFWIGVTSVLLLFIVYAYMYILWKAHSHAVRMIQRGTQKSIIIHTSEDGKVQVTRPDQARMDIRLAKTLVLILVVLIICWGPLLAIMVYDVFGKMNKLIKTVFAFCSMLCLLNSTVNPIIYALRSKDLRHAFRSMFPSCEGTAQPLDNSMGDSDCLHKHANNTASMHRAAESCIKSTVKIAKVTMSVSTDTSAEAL

female Sabra mice [2] = experiment: Tetrad: rearing (vertical movements) in an open field; assay type: in vivo; conditions: 20 mg/kg i.p., open field 8 min; normalized; * = P<0.05 vs vehicle
Experimental: (§1) Mice were injected with antagonist 90 minutes before testing and/or with agonist 60 minutes before testing in a series of four assays which reflect central cannabinoid activity [Martin (1991) id. ibid.; modified by Fride, E. and R. Mechoulam (1993) id. ibid.]. This “tetrad” consists of, consecutively, ambulation and rearing in an open field (8 minutes), immobility on an elevated ring of 5 cm diameter (4 minutes), rectal temperature (Yellow

CB2 receptor [3] = target: T2, CB2 receptor (Homo sapiens, UniProt P34972); experiment: CB2 receptor binding; conditions: for Ki: second value of CB1/CB2 cell
T2 sequence (P34972 whole entry): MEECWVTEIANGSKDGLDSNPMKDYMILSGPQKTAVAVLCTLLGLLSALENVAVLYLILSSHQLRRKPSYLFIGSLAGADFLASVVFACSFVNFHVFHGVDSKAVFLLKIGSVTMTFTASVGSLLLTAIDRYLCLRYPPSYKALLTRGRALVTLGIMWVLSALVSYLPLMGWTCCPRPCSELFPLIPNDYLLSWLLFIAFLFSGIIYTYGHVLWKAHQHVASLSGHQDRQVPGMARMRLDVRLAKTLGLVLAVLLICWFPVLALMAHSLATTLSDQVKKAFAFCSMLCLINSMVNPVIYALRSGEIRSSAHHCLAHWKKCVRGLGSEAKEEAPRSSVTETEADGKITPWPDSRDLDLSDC

female Sabra mice [4] = experiment: Tetrad: ambulation (horizontal movements) in an open field; assay type: in vivo; conditions: 20 mg/kg i.p., open field 8 min, 30 or 60 min after injection; normalized; * = P<0.05 vs vehicle
Experimental: as §1

female Sabra mice [5] = experiment: Hypothermia (rectal temperature); assay type: in vivo; conditions: 20 mg/kg i.p., * = P<0.05 vs vehicle
Experimental: as §1
(§2) Defecation was measured as the number of fecal pellets voided in the open field. In some experiments (as indicated below), fecal pellets and body temperature were assessed for a prolonged period (3 hr).

female Sabra mice [6] = experiment: Tetrad overall (central cannabinoid activity); assay type: in vivo; conditions: 20 mg/kg i.p., tested 60 minutes later
Experimental: Central activity of the compounds of the invention was assessed in the “tetrad”, which is a series of assays commonly used to measure central cannabimimmetic effects [Martin, B. R. et al. (1991) Pharmacol. Biochem. Behav. 40(3): 471-8; Fride, E. and C. Sanudo-Pena (2002) id. ibid.]. Three parameters for peripheral activity were used. Since gastrointestinal transit is regulated locally in the periphery rather than by centrally located CB1 receptors [Izzo (2000) id. ibid.; Landi (2002) id. ibid.], intestinal motility was one of the parameters used, and peripheral cannabinoid effects was measured as rates of defecation (see Example 29).
as §1

female Sabra mice [7] = experiment: Tetrad: catalepsy (immobility) on an elevated ring; assay type: in vivo; conditions: 20 mg/kg i.p., elevated ring 4 min; normalized; * = P<0.05 vs vehicle
Experimental: as §1

[8] = tested on: arachidonic acid-induced ear inflammation in the mouse; experiment: Arachidonic acid induced inflammation of the external ear; assay type: in vivo; conditions: for inhibition of arachidonic acid-induced ear inflammation, in words: i.p., 10 to 40 mg/kg, ear thickness every 15 minutes for 90 minutes
Experimental: Ear inflammation was measured by assessing ear tissue swelling after topical application of arachidonic acid, as described previously [Hanus (1999) id. ibid.]. Briefly, at various times after i.p. drug injections, arachidonic acid was applied to the inner surface of one ear (4.5 mg dissolved in […] ethanol). The opposite ear served as control (5 ethanol). Ear thickness was determined (in 0.01-mm units) by using a dial thickness gauge (Mitutoyo, Japan) every 15 minutes for 90 minutes, starting immediately after arachidonic acid application.

female Sabra mice [9] = experiment: Hot plate analgesia (centrally mediated pain); assay type: in vivo; conditions: 20 mg/kg i.p., hot plate 55° C., max 45 sec; normalized; * = P<0.05 vs vehicle
Experimental: Pain perception on a hot plate, is considered to be mediated by a central mechanism whereas the second, late phase of the response to an implantar injection of formalin reflects inflammatory pain mechanisms [Tjolsen, A. and Hole (1997) id. ibid.].
Thus, central pain perception was assessed by the analgesic response on a hot plate (55° C., Columbus Instruments, OH, USA). Peripheral pain was measured by the response to implantar injection of formalin (4%) 45 minutes after injection of the drug.

female Sabra mice [10] = experiment: Intestinal motility (defecation, number of fecal pellets); assay type: in vivo; conditions: 20 mg/kg i.p.; for inhibition of defecation / intestinal motility, in words: 60 minutes after injection; for Inhibition of Intesitinal Motility (% MPE): defecation in open field 8 min, normalized, * = P<0.05 vs vehicle
Experimental: as §2

female Sabra mice [11] = conditions: Hanus (1999); antagonized by SR144528, not by SR141716A; cited from earlier work
[12] = tested on: CB1−/− receptor knockout mice; experiment: Intestinal motility in CB1−/− receptor knockout mice; assay type: in vivo; conditions: 20 mg/kg i.p., defecation rate recorded for 3 hours
Experimental: Female CB1−/− knockout mice were injected i.p. with (+)-7-OH-CBD-DMH, (+)-CBD-DMH or Δ^9-THC (20 mg/kg). Intestinal motility (defecation rate) was recorded for a period of 3 hours.
(§3) Female Sabra mice (2-3 months of age) were purchased from Harlan, Israel. Breeding pairs of CB1−/− receptor knockout mice were provided by Prof. A. Zimmer, University Clinic Bonn, Germany.
as §2

[13] = tested on: CB1−/− receptor knockout mice; experiment: Central effects in CB1−/− receptor knockout mice; assay type: in vivo; conditions: not shown
Experimental: as §3, §1

CB2 receptor [14] = target: T2, CB2 receptor; conditions: cited from earlier work
female Sabra mice [15] = experiment: Intestinal motility after antagonist pre-treatment (SR141716A, SR144528, capsazepine); assay type: in vivo
Experimental: (SR1, 1 mg/kg). SR1 was injected (i.p.) 30 minutes before the agonist. 60 minutes after (+)CBD-DMH the number of fecal pellets was recorded.
(SR2, 1 mg/kg). SR2 was injected (i.p.) 30 minutes before the agonist. 60 minutes after (+)-CBD-DMH the number of fecal pellets was recorded.
as §1, §2

CB1 receptor [16] = target: T1, CB1 receptor; conditions: cited from earlier work

| SMILES | Vertical Movements (% MPE) (female Sabra mice [2]) | Horizontal Movements (% MPE) (female Sabra mice [4]) | Hypothermia (Δ-Body Temp.) (female Sabra mice [5]) | Catalepsy (Freezing of Movement) (% MPE) (female Sabra mice [7]) | Analgesia (Hot Plate) (% MPE) (female Sabra mice [9]) | Inhibition of Intesitinal Motility (% MPE) (female Sabra mice [10]) | Ki (CB1 receptor [1]) | Ki (CB2 receptor [3]) | further results |
| --- | --- | --- | --- | --- | --- | --- | --- | --- | --- |
| C=C(C)C1CCC(C)=CC1c1c(O)cc(CCCCC)cc1O (single isomer, unassigned; (+)) [+CBD, (+)-CBD] | 103 % MPE | 108 % MPE | 0.5 °C | 05 % MPE | 13 % MPE | 13 % MPE |  |  | CB1 receptor binding, in words (CB1 receptor [1]): weakly binds; CB2 receptor binding, in words (CB2 receptor [3]): weakly binds; central effects (tetrad), in words (female Sabra mice [6]): had no central neither peripheral (intestinal motility) effects; also recorded: Lack of effects; inhibition of arachidonic acid-induced ear inflammation, in words [8]: had no effect; inhibition of defecation / intestinal motility, in words (female Sabra mice [10]): had no central neither peripheral (intestinal motility) effects; also recorded: Lack of effects |
| C=C(C)C1CCC(C(=O)O)=CC1c1c(O)cc(CCCCC)cc1O (single isomer, unassigned) [+COOH−CBD, 7-Nor-carboxy CBD] | 71 % MPE | 80 % MPE | −0.6 °C | 06 % MPE |  | 100* % MPE | 13.2 nM | 322 nM |  |
| CCCCCCC(C)(C)c1cc(OC)c([C@@H]2C=C(CO)[C@@H]3C[C@H]2C3(C)C)c(OC)c1 [HU-308] |  |  |  |  |  |  |  |  | inhibition of defecation (earlier report) (female Sabra mice [11]): inhibited defecation |
| CCCCCc1cc(O)c2c(c1)OC(C)(C)[C@@H]1CCC(C)=C[C@@H]21 [Δ^9−THC, Delta-9 tetrahydrocannabinol, reference compound] | 12* % MPE | 44* % MPE | −2.1* ° C. | 44* % MPE | 97* % MPE | 100* % MPE |  |  | effect on intestinal motility in CB1−/− knockout mice [12]: None of the drugs assessed ((+)-CBD-DMH, (+)-7-OH-CBD-DMH and Δ^9-THC had any effect; also recorded: No significant effects; central effects in CB1−/− receptor knockout mice [13]: None of the drugs assessed ((+)-CBD-DMH, (+)-7-OH-CBD-DMH and Δ^9-THC had any effect |
| C=C(C)C1CCC(CO)=CC1c1c(O)cc(CCCCC)cc1O (single isomer, unassigned; (+)) [+70H−CBD, (+)-7-Hydroxy CBD] | 81 % MPE | 107 % MPE | 0.3 °C | 0 % MPE | 77 % MPE | 89* % MPE | 5.3 nM | 101 nM |  |
| COc1ccc2c(c1)c(CC(=O)O)c(C)n2C(=O)c1ccc(Cl)cc1 [Indomethacin, reference compound] |  |  |  |  |  |  |  |  | potency compared to indomethacin in ear inflammation, in words ([8]; (+)-CBD-DMH 40 or 10 mg/kg vs indomethacin 20 mg/kg): Equal potencies |
| C=C(C)C1CCC(CO)=CC1c1c(O)cc(C(C)(C)CCCCCC)cc1O (single isomer, unassigned; (+)) [+70H−CBD−DMH, (+)-7-Hydroxy CBD-DMH] | 0* % MPE | 01* % MPE | −5.2* ° C. | 95* % MPE | 100* % MPE | 100* % MPE |  |  | Kd (CB2 receptor [14]; previously reported, Bisogno et al. 2001, read-out: affinity for the CB2 receptor (Kd)): 44 nM; Ki (CB2 receptor [14]; second value of CB1/CB2 cell, data from Bisogno et al., 2001, read-out: CB2 Receptor Binding (Ki)): 44 nM; effect on intestinal motility in CB1−/− knockout mice ([12]; listed as (+)-7-OH-CBD-DMH): None of the drugs assessed ((+)-CBD-DMH, (+)-7-OH-CBD-DMH and Δ^9-THC had any effect; also recorded: no effects; central effects (tetrad), in words (female Sabra mice [6]): very potent; central effects (tetrad), in words (female Sabra mice [6]; listed as (+)-7-OH-CBD-DMH): had central effects in all assays of the tetrad; central effects (tetrad), in words (female Sabra mice [6]; listed as (+)-7OH-CBD-DMH): significant and consistent central activity; central effects in CB1−/− receptor knockout mice [13]: None of the drugs assessed ((+)-CBD-DMH, (+)-7-OH-CBD-DMH and Δ^9-THC had any effect; reversal of inhibition of defecation by CB1 antagonist SR141716A (female Sabra mice [15]; agonist 20 mg/kg, SR141716A 1 mg/kg i.p. 30 minutes before agonist): effectively antagonized; reversal of inhibition of defecation by CB2 antagonist SR144528 (female Sabra mice [15]; agonist 20 mg/kg, SR144528 1 or 3 mg/kg i.p. 30 minutes before agonist): not at all; effect of VR1 antagonist capsazepine on inhibition of defecation (female Sabra mice [15]; data not shown): did not affect; inhibition of arachidonic acid-induced ear inflammation, in words ([8]; listed as (+)7OH-CBD-DMH): effectively prevented ear inflammation; inhibition of arachidonic acid-induced ear inflammation, in words ([8]; listed as (+)-7-OHCBD-DMH): inhibited ear inflammation; inhibition of defecation / intestinal motility, in words (female Sabra mice [10]): completely blocked; Ki (CB1 receptor [16]; first value of CB1/CB2 cell, data from Bisogno et al., 2001, read-out: CB1 Receptor Binding (Ki)): 2.5 nM; Kd (CB1 receptor [16]; previously reported, Bisogno et al. 2001, read-out: affinity for the CB1 receptor (Kd)): 2.5 nM |
| C=C(C)C1CCC(C(=O)O)=CC1c1c(O)cc(C(C)(C)CCCCCC)cc1O (single isomer, unassigned; (+)) [+COOH−CBD−DMH, (+)-7-Nor-carboxy CBD DMH] | 100 % MPE | 102 % MPE | 0.2 °C | 0 % MPE | 09 % MPE | 100* % MPE | 5.8 nM | 156 nM |  |
